How the values were obtained:
Lewis Lung Carcinoma = Lewis Lung Carcinoma model / LLC tumor brei model; assay type: in vivo, mouse
[1] = test system: RANKL driven differentiation of osteoclasts from bone marrow macrophages; test: Osteoclast differentiation assay (TRAP); assay type: cell-based, mouse; settings: TRAP positive cells, FIG. 17
Protocol: Long bones from young C57B6 mice were harvested and bone marrow was extruded by gentle lavage of the bone marrow cavities with a 28 gage needle. The cells were screened, and red blood cells were removed using red blood cell lysis buffer (Sigma). Bone marrow cells were differentiated to macrophages using 20 ng/ml mouse MCSF (RnD systems) for 3 days (RPMI and 20% FCS). The cell were washed with PBS, and lifted with Accutase for 10 minutes.
The bone marrow macrophage cells were plated at 150,000 cells per well in a 96 well plate in a MEM 10% FCS. […] Then 25 ng/ml mouse MCSF with or without mouse RANKL (100 ng/ml, RnD systems) was added for 6 days. Media changes (including drugs) were done at day 3 and day 5. The cells were then fixed and stained with the tartrate resistant acid phosphatase (TRAP) assay kit from Sigma according to the manufactures instructions. TRAP positive cells (osteoclasts and cells undergoing an osteoclastic differentiation) in a transect of the triplicate wells (at 20× […]) were manually counted by going through the widest part of each well.

CT26 tumors = test: CT26 colon cancer allograft model; assay type: in vivo, mouse; settings: FIG. 28
MC38 tumors = test: MC38 colon cancer model; assay type: in vivo, mouse
Protocol: In this model, a syngeneic colon cancer cell line is run subcutaneously. The experimental setup was as follows.
Female CR C57BL/6 mice were set up with 1×10^6 MC38 tumor cells in 0% Matrigel sc in flank. The cell injection volume was 0.05 ml per mouse. When tumors reached an average size of […], a pair match was made and treatment began. The tumor was measured by caliper biweekly.
The dosing volume was 5 mL/kg.
For all animals, blood was collected by terminal cardiac puncture under isoflurane anesthesia. The blood was processed for plasma. In addition, tumor samples were collected.
At study end, tumors were isolated, fixed in 10% neutral buffered formalin and embedded in paraffin for histologic analysis. Tumor sections from both vehicle and Compound BB monotherapy were cut for immunohistochemical analysis. T-cells within the tumor sections were identified utilizing a CD3-specific antibody via automated immunohistochemistry equipment (Ventana). Once stained, slides were digitalized via Aperio slide scanning equipment. Next, stained tumor sections were quantified via Definians software to assess the percentage of CD3 positive cells within each tumor. […] A trendline was added to the vehicle and Compound BB monotherapy graphs.

[2] = test system: CD11b+ myeloid cells in 4T1 tumors; test: Immunohistochemistry of tumor immune infiltrates (CD11b, CD68), 4T1; assay type: in vivo, mouse; settings: vs vehicle, day 13
Protocol: Immunohistochemistry was performed to determine the distribution of immune cells within the tumor. In particular, CD11b myeloid cells were examined, as were regulatory vs. effector T cells (CD3, CD4, CD8, FoxP3). Briefly, IHC for CD11b or CD68+ was performed as follows. CD11b antibodies were available from Abcam, clone I-70, Catalog #ab 8878. CD68 antibodies were available from Abcam, clone FA-11, catalog #ab 53444. Tissues were fixed in cold methanol, air-dried, and then stained using a Res IHC Omni-UltraMap HRP XT protocol.
Without being bound by a particular theory, the decrease in the pro-tumorigenic tumor associated myeloid cells can result in activation of cytotoxic T-cells and anti-tumor immunity. […] When the images were quantified as CD11b+ cells per total viable cells (FIG. 37E), a Student t-Test p-value of 0.0355 was obtained when comparing the Compound BB-treated cells to controls. When the images were quantified as CD11b+ stained area per total visible area (FIG. 37F), a Student t-Test p-value of 0.0441 was obtained when comparing the Compound BB-treated cells to controls. […] When the images were quantified as CD11b+ cells per total viable cells (FIG. 37G), a Student t-Test p-value of 0.0864 (d16) or 0.3967 (d22) was obtained when comparing the Compound BB-treated cells to controls. […]

Cyps = test: Time dependent Cyp inhibition; assay type: in vitro ADME
GL261-Luc tumors = test: GL261-Luc murine glioblastoma subcutaneous model; assay type: in vivo, mouse; settings: 15 mg/kg QD, PO, FIG. 47A
[3] = test system: tumor cell inhibition of T cell proliferation; test: Ex vivo T cell proliferation (CFSE) with CT26 tumor cells; assay type: in vivo, mouse; settings: tumors from treated mice
Protocol: CT26 was an N-nitroso-N-methylurethane-(NNMU) induced, undifferentiated colon carcinoma cell line. It was cloned to generate the cell line designated CT26.WT (ATCC CRL-2638).
The duration of the study was 1 week under treatment. 5-6 week old female, Balb/c mice (Jackson Labs) implanted subcutaneously with 5×10^5 CT26 cells in 100 μl PBS. CT26 cells were cultured in RPMI supplemented with 10% FBS. Dosing commenced when tumors reached an average volume of 500-600 mm^3.
For group 3 (αPD-L1), the mice were dosed once, IP, 200 ug (200 uL from 1 mg/ml stock).
Mice were monitored daily for adverse clinical effects. Body weights and tumor luminescent were measured two times per week. At the end of the study, tumors were harvested and cut into 3 parts; one piece for CTL killing assay, one piece for CSFE proliferation assay and one piece (split into two) for OCT/FFPE.
Spleens from 3 vehicle treated tumor bearing mice were physically dissociated in T cell media and passed through a 70 micron filter. After red cell lysis, the cells were pooled, brought up in PBS and stained with CFSE (invitrogen). After washing, these cells were brought up in 20 ml T cell media. Half the cells received Dynal mouse activator beads (CD3/CD28 crosslinking at a 1:1 concentration). CD3/CD28 beads induce proliferation in splenocytes from tumor bearing mouse (data not shown). […]

C[C@H](NC(=O)c1c(N)nn2cccnc12)c1cc2cccc(C#Cc3cnn(C)c3)c2c(=O)n1-c1ccccc1 [Compound BB]
CD206+ M2 polarized suppressive macrophages (Lewis Lung Carcinoma): reduces
TAMs (Lewis Lung Carcinoma): decreased
RANKL driven differentiation of osteoclasts from bone marrow macrophages [1]: prevents RANKL driven differentiation of osteoclasts
MDSC expansion after cyclophosphamide treatment (CT26 tumors): expansion is decreased
Intratumoral CD3+ T cells (MC38 tumors; MC38 tumors vs vehicle, FIG. 30): significantly more intratumoral CD3+ T cells
Tumor growth, MC38 colon cancer model (MC38 tumors; monotherapy, FIG. 29A): significantly inhibited tumor growth
CD11b+ myeloid cell staining in viable regions of 4T1 tumors [2]: decrease in CD11b+ myeloid cell staining
Time dep Cyp Inhibition @ 10 uM (Cyps): Neg
Tumor volume, GL-261 syngeneic glioma model (GL261-Luc tumors): reduced tumor volume
Suppression of T cell proliferation by cells derived from CT26 tumors [3]: can release the suppression

— patent US11541059B2, “Heterocyclic compounds and uses thereof” (Infinity Pharmaceuticals, Inc., priority 2014, dated 2023)
